Activity calls are given as the source filed them. The rule behind the calls is not given here.
How the values were obtained:
ACHN = experiment: Antiproliferative activity against human ACHN cells assessed as reduction in cell viability at 0.5 uM measured up to 72 hrs by MTS assay; format: functional, cell-based
HepG2 [1] = experiment: Inhibition of colony formation in human HepG2 at 0.1 uM after 2 weeks by trypan blue staining based assay relative to control; format: functional; settings: HepG2, 336 h
HCT-116 [2] = experiment: Inhibition of colony formation in human HCT116 at 0.1 uM after 2 weeks by trypan blue staining based assay relative to control; format: functional; settings: HCT-116, 336 h
HepG2 [3] = experiment: Induction of ROS generation in human HepG2 cells at 0.5 uM by DCFH-DA staining based fluorescence assay; format: functional, cell-based; settings: TDE = time-dependent effect
HepG2 [4] = experiment: Induction of autophagy in human HepG2 cells assessed as increase in formation of autophagosomes at 0.5 uM by TEM analysis; format: functional, cell-based; settings: TDE = time-dependent effect
HepG2 [5] = experiment: Induction of autophagy in human HepG2 cells assessed as inhibition of lactate generation at 0.5 uM up to 4 hrs; format: functional, cell-based
HepG2 [6] = experiment: Inhibition of colony formation in human HepG2 at 1 to 5 uM after 2 weeks by trypan blue staining based assay; format: functional, cell-based
HCT-116 [7] = experiment: Inhibition of colony formation in human HCT116 at 1 to 5 uM after 2 weeks by trypan blue staining based assay; format: functional, cell-based
HeLa = experiment: Inhibition of colony formation in human HeLa at 1 to 5 uM after 2 weeks by trypan blue staining based assay; format: functional, cell-based
T-24 = experiment: Induction of apoptosis in human T24 cells assessed as increase in cleaved PARP1 level at 5 uM after 12 hrs by Western blot analysis; format: functional, cell-based
HepG2 [8] = experiment: Induction of autophagy in human HepG2 cells assessed as ratio of LC3-2 level to total ERK level at 0.5 uM after 2 hrs in presence of 2-DG by Western blot analysis (reference value: 1.1); format: functional

| SMILES | Activity (ACHN) | inhibition at 0.1 µM (HepG2 [1]) [%] | inhibition at 0.1 µM (HCT-116 [2]) [%] | Activity (HepG2 [3]) | Activity (HepG2 [4]) | inhibition (HepG2 [5]) | inhibition (HepG2 [6]) | inhibition (HCT-116 [7]) | inhibition (HeLa) | Activity (T-24) | Ratio (HepG2 [8]) |
| --- | --- | --- | --- | --- | --- | --- | --- | --- | --- | --- | --- |
| CC[C@@]12SS[C@]3(C(=O)N1C)[C@@H](O)C1(C45c6ccccc6N[C@@H]4N4C(=O)[C@]6([C@@H](C)O)SS[C@]4(C(=O)N6C)[C@H]5O)c4ccccc4N[C@@H]1N3C2=O (stereo partly specified) | Active | 100 | 100 | Tde | Tde | Active |  |  |  |  |  |
| CCC1(SC)C(=O)N2[C@H]3N(C)c4ccccc4C3(C34c5ccccc5N(C)[C@@H]3N3C(=O)C(SC)([C@@H](C)O)N(C)C(=O)C3(SC)[C@H]4O)[C@H](O)C2(SC)C(=O)N1C (stereo partly specified) |  |  |  |  |  |  | Active | Active | Active | inactive | 1 |
